Where two headings read alike, the source gives them in different places.
Legend:
[1] = biological target: recombinant human GST-Syk (Homo sapiens (Human), UniProt P43405); assay: Homogeneous Time-Resolved Fluorescence (HTRF) Assay for the Recombinant Human Syk Enzyme; type: biochemical; conditions: recombinant human GST-Syk 5 pM, ATP 25 μM
Procedure: Homogeneous Time-Resolved Fluorescence (HTRF) Assay for the Recombinant Human Syk Enzyme:
A recombinant GST-hSyk fusion protein was used to measure potency of compounds to inhibit human Syk activity. The recombinant human GST-Syk (Carna Biosciences #08-176) (5 pM final concentration) was incubated with various concentrations of the inhibitor diluted in DMSO (0.1% final concentration) for 10 minutes at room temperature in 15 mM Tris-HCl (pH 7.5), 0.01% tween 20, 2 mM DTT in 384 well plate format. To initiate the reaction the biotinylated substrate peptide (250 nM final concentration) that contains the phosphorylation site for Syk was added with magnesium (5 mM final concentration) and ATP (25 μM final concentration). Final volume of the reaction was 10 μL. Phosphorylation of the peptide was allowed to proceed for 45′ at room temperature. To quench the reaction and detect the phosphorylated product, 2 nM of a Europium-anti-phosphotyrosine antibody (Perkin Elmer #AD0161) and 70 nM SA-APC (Perkin-Elmer #CR130-100) were added together in 15 mM Tris pH 7.5, 40 mM EDTA, 0.01% Tween 20. Final volume of the quenching solution was 10 μL. The resulting HTRF signal was measured after 30 minutes on a EnVision (Perkin-Elmer) reader using a time-resolved fluorescence protocol. […] IC50 values are also provided for the following representative compounds: […]

PGD2 = conditions: intranasal, allergic rhinitis, phase I/II; cited from earlier work
[2] = allergic rhinitis, phase II; cited from earlier work
[3] = 10-dose titration, read-out: rhSyk
[4] = read-out: rhSyk Activity (IC50)

IC50 [1, 3] [nM] | IC50 [1, 4] [nM] | SMILES | further results
13 | ≤ 100 | Cc1cc(Nc2nccc(C)n2)cc(-c2cnc(C(C)(O)C3CCC(C(=O)O)CC3)s2)c1 (stereo not drawn) [Example 2-53] | –
5 | ≤ 100 | Cc1cc(Nc2ncc(Cl)c(C)n2)cc(-c2cnc(C(C)(O)C3CCC(C(=O)O)CC3)s2)c1 (stereo not drawn) [Example 2-60] | –
1460 | 1000 to 10000 | CCCCC(=O)OC1CCC(C(C)(O)c2ncc(-c3cc(C)cc(Nc4ncc(F)c(OC)n4)c3)s2)CC1 (stereo not drawn) [Example 2-73] | –
2 | ≤ 100 | Cc1cc(Nc2nccc(C)n2)cc(-c2cnc(C(O)(C3CCC(C(=O)O)CC3)C(F)(F)F)s2)c1 (stereo not drawn) [Example 2-101] | –
15 | ≤ 100 | Cc1cc(Nc2ncc(F)c(C)n2)cc(-c2cnc(C(O)(CO)C3CCC(C(=O)O)CC3)s2)c1 (stereo not drawn) [Example 2-109] | –
1 | ≤ 100 | COC(C)(c1ncc(-c2cc(C)cc(Nc3nccc(C(F)(F)F)n3)c2)s1)[C@H]1CC[C@H](C(=O)O)CC1 (stereo partly drawn) [Example 2-110] | –
3 | ≤ 100 | Cc1cc(Nc2nccc(C(F)(F)F)n2)cc(-c2cnc(C(N)[C@H]3CC[C@H](C(=O)O)CC3)s2)c1 (stereo partly drawn) [Example 2-112] | –
– | ≤ 100 | Cc1cc(Nc2nccc(C(F)(F)F)n2)cc(-c2cnc(C(C)(O)C3CCC(C(=O)O)C3)s2)c1 (stereo not drawn) [Example 3-1] | –
2 | ≤ 100 | Cc1cc(Nc2nccc(C(F)(F)F)n2)cc(-c2cnc(C(C)(O)C3CCC(C(=O)O)C3)s2)c1 (stereo not drawn) [Example 3-2] | –
– | ≤ 100 | Cc1cc(Nc2nccc(C(F)(F)F)n2)cc(-c2cnc(C(C)(O)C3CCC(C(=O)O)C3)s2)c1 (stereo not drawn) [Example 3-3] | –
– | ≤ 100 | Cc1cc(Nc2nccc(C(F)(F)F)n2)cc(-c2cnc(C(C)(O)C3CCC(C(=O)O)C3)s2)c1 (stereo not drawn) [Example 3-4] | –
– | ≤ 100 | Cc1cc(Nc2nccc(C(F)(F)F)n2)cc(-c2cnc(C(C)(O)C3CCC(C)(C(=O)O)CC3)s2)c1 (stereo not drawn) [Example 3-5] | –
– | ≤ 100 | Cc1cc(Nc2nccc(C(F)(F)F)n2)cc(-c2cnc(C(C)(O)C3CCC(C)(C(=O)O)CC3)s2)c1 (stereo not drawn) [Example 3-6] | –
– | ≤ 100 | Cc1cc(Nc2nccc(C(F)(F)F)n2)cc(-c2cnc(C(C)(O)C3CCC(C)(C(=O)O)CC3)s2)c1 (stereo not drawn) [Example 3-7] | –
2 | ≤ 100 | Cc1cc(Nc2nccc(C(F)(F)F)n2)cc(-c2cnc(C(F)C3CCC(C(=O)O)CC3)s2)c1 (stereo not drawn) [Example 4-6] | –
– | ≤ 100 | Cc1cc(Nc2nccc(C)n2)cc(-c2cnc(C[C@]3(O)CC[C@@H](C(=O)O)CC3)s2)c1 [Example 5 (cis isomer), cis-4-hydroxy-4-[(5-{3-methyl-5-[(4-methylpyrimidin-2-yl)amino]phenyl}-1,3-thiazol-2-yl)methyl]cyclohexanecarboxylic acid] | –
– | ≤ 100 | Cc1cc(Nc2nccc(C(F)(F)F)n2)cc(-c2cnc(C(O)[C@H]3CC[C@@H](C(N)=O)CC3)s2)c1 [Example 7 (cis isomer), cis-4-{hydroxy[5-(3-methyl-5-{[4-(trifluoromethyl)pyrimidin-2-yl]amino}phenyl)-1,3-thiazol-2-yl]methyl}cyclohexanecarboxamide] | –
35 | ≤ 100 | Cc1cc(Nc2nccc(C(F)(F)F)n2)cc(-c2cnc(C(O)[C@H]3CC[C@H](C(N)=O)CC3)s2)c1 [Example 7 (trans isomer), trans-4-{hydroxy[5-(3-methyl-5-{[4-(trifluoromethyl)pyrimidin-2-yl]amino}phenyl)-1,3-thiazol-2-yl]methyl}cyclohexanecarboxamide] | –
– | ≤ 100 | Cc1cc(Nc2nccc(C(F)F)n2)cc(-c2cnc(C(C)(O)[C@H]3CC[C@H](C(=O)O)CC3)s2)c1Br (stereo partly drawn) [Example 8-1] | –
– | ≤ 100 | Cc1cc(Nc2nccc(C(F)(F)F)n2)cc(-c2cnc(C(O)(CF)[C@H]3CC[C@H](C(=O)O)CC3)s2)c1 (stereo partly drawn) [Example 9, trans-4-{2-fluoro-1-hydroxy-1-[5-(3-methyl-5-{[4-(trifluoromethyl)pyrimidin-2-yl]amino}phenyl)-1,3-thiazol-2-yl]ethyl}cyclohexanecarboxylic acid] | –
– | ≤ 100 | Cc1cc(Nc2nccc(C(F)(F)F)n2)cc(-c2cnc([C@@](O)(CF)[C@H]3CC[C@H](C(=O)O)CC3)s2)c1 [Example 10] | –
– | ≤ 100 | Cc1cc(Nc2nccc(C(F)(F)F)n2)cc(-c2cnc(C(O)C3CCC(O)CC3(C)C)s2)c1 (stereo not drawn) [Example 12, 4-{hydroxy[5-(3-methyl-5-{[4-(trifluoromethyl)pyrimidin-2-yl]amino}phenyl)-1,3-thiazol-2-yl]methyl}-3,3-dimethylcyclohexanol] | –
301 | 100 to 1000 | CCOC(=O)C1CCC(Cc2ncc(-c3cc(C)cc(Nc4nccc(C)n4)c3)s2)CC1 (stereo not drawn) [Example 13, step 2, ethyl 4-[(5-{3-methyl-5-[(4-methylpyrimidin-2-yl)amino]phenyl}-1,3-thiazol-2-yl)methyl]cyclohexanecarboxylate] | –
850 | 100 to 1000 | COC(=O)[C@@H]1CC(C(=O)c2ncc(-c3cc(C)cc(Nc4nccc(C(F)(F)F)n4)c3)s2)[C@H](O)C1(C)C (stereo partly drawn) [Example 14, methyl (1,3-cis, 1,4-trans)-3-hydroxy-2,2-dimethyl-4-{[5-(3-methyl-5-{[4-(trifluoromethyl)-pyrimidin-2-yl]amino}phenyl)-1,3-thiazol-2-yl]carbonyl}cyclopentanecarboxylate] | –
197 | 100 to 1000 | Cc1cc(Nc2nccc(C(F)(F)F)n2)cc(-c2cnc(C(O)C3CCC4(CC3)OCCO4)s2)c1 (stereo not drawn) [Example 22, 1,4-dioxaspiro[4.5]dec-8-yl[5-(3-methyl-5-{[4-(trifluoromethyl)pyrimidin-2-yl]amino}phenyl)-1,3-thiazol-2-yl]methanol] | –
– | ≤ 100 | Cc1cc(Nc2nccc(C(F)(F)F)n2)cc(-c2cnc(C(C)(O)C3CCC(C)(O)CC3)s2)c1 (stereo not drawn) [Example 23, 4-{1-hydroxy-1-[5-(3-methyl-5-{[4-(trifluoromethyl)pyrimidin-2-yl]amino}phenyl)-1,3-thiazol-2-yl]ethyl}-1-methylcyclohexanol] | –
– | – | Oc1cccc(Nc2ncc(F)c(Nc3cccc(O)c3)n2)c1 [Example R112] | decrease in PGD2 (PGD2): statistically significant decrease; safety across a range of indicators (PGD2): safe; efficacy versus placebo [2]: lack of efficacy
– | ≤ 100 | Cc1cc(Nc2nccc(C(F)(F)F)n2)cc(-c2cncs2)c1 [Intermediate 21, N-[3-methyl-5-(1,3-thiazol-5-yl)phenyl]-4-(trifluoromethyl)pyrimidin-2-amine] | –

SMILES | IC50 [1, 3] [nM] | IC50 [1, 4] [nM] | further results
Cc1cc(Nc2nccc(C)n2)cc(-c2cnc(C(C)(O)C3CCC(NOC(=O)Cc4ccccc4)CC3)s2)c1 (stereo not drawn) [Example 2-57] | 123 | 100 to 1000 | –

From patent US9290490B2 (Merck Sharp & Dohme Corp., priority 2011, dated 2016)
